Results taken from patent US20100113464A1, “NOVEL PYRIDAZINE DERIVATIVES” (SYNGENTA CROP PROTECTION, INC., priority 2006, published 2010).

Key:
[1] = system: Uncinula necator; test: Uncinula necator/Grape/Preventive (action against powdery mildew on grape); format: in vivo; conditions: Erysiphe necator, 168 h, preventive spray, grape seedlings cv. Gutedel, assessed after 7 days incubation, untreated controls infected over 80%, read-out: inhibit fungal infestation
Experimental: Uncinula necator/Grape/Preventive (Action Against Powdery Mildew on Grape) 5 weeks old grape seedlings cv. Gutedel are treated with the formulated test compound in a spray chamber. One day after application grape plants are inoculated by shaking plants infected with grape powdery mildew above the test plants. After an incubation period of 7 days at 24° C./22° C. and 70% r.h. under a light regime of 14/10 h (light/dark) the disease incidence is assessed.

[2] = system: Botrytis cinerea; test: Botrytis cinerea/Tomato/Preventive (action against Botrytis on tomato); format: in vivo; conditions: 72 h, preventive spray, tomato plants cv. Roter Gnom, assessed after 3 days incubation, untreated controls infected over 80%, read-out: inhibit fungal infestation
Experimental: (§1) Botrytis cinerea/Tomato/Preventive (Action Against Botrytis on Tomato) 4 weeks old tomato plants cv. Roter Gnom are treated with the formulated test compound in a spray chamber. Two days after application tomato plants are inoculated by spraying a spore suspension on the test plants. After an incubation period of 3 days at 20° C. and 95% r. h. in a greenhouse the disease incidence is assessed.

[3] = system: Alternaria solani; test: Alternaria solani/Tomato/Preventive (action against Alternaria on tomato); format: in vivo; conditions: 96 h, preventive spray, tomato plants cv. Roter Gnom, assessed after 4 days incubation, untreated controls infected over 80%, read-out: inhibit fungal infestation
Experimental: as §1, with “Alternaria solani/Tomato/Preventive” for “Botrytis cinerea/Tomato/Preventive”, “Alternaria” for “Botrytis”, “4” for “3”, “22° C./18°” for “20°”, “r.h.” for “r. h.”

[4] = system: Magnaporthe arisea (Pyricularia oryzae); test: whole plant or invertebrate; format: in vivo; conditions: 144 h, read-out: inhibit fungal infestation
[5] = system: Puccinia recondite; test: Puccinia recondite/Wheat/Preventive (action against brown rust on wheat); format: in vivo; conditions: 264 h, preventive spray, wheat plants cv. Arina, assessed 11 days after inoculation, untreated controls infected over 80%, read-out: inhibits fungal infestation
Experimental: Puccinia recondite/Wheat/Preventive (Action Against Brown Rust on Wheat) 1 week old wheat plants cv. Arina are treated with the formulated test compound in a spray chamber. One day after application wheat plants are inoculated by spraying a spore suspension ([…] uredospores/ml) on the test plants. After an incubation period of 1 day at 20° C. and 95% r h. plants are kept for 10 days 20° C./18° C. (day/night) and 60% r.h. in a greenhouse. The disease incidence is assessed 11 days after inoculation.

[6] = system: Septoria tritici; test: Septoria tritici/Wheat/Preventive (action against Septoria leaf spot on wheat); format: in vivo; conditions: Zymoseptoria tritici, preventive spray, wheat plants cv. Riband, assessed 16-18 days after inoculation, untreated controls infected over 80%, read-out: inhibits fungal infestation
Experimental: Septoria tritici/Wheat/Preventive (Action Against Septoria Leaf Spot on Wheat) 2 weeks old wheat plants cv. Riband are treated with the formulated test compound in a spray chamber. One day after application wheat plants are inoculated by spraying a spore suspension (10^6 conidia/ml) on the test plants. After an incubation period of 1 day at 22° C./21° C. and 95% r.h. plants are kept at 22° C./21° C. and 70% r.h. in a greenhouse. The disease incidence is assessed 16-18 days after inoculation.

[7] = system: Pyrenophora teres (Helminthosporium teres); test: Pyrenophora teres (Helminthosporium teres)/Barley/Preventive (action against net blotch on barley); format: in vivo; conditions: 96 h, preventive spray, barley plants cv. Regina, assessed after 4 days incubation, untreated controls infected over 80%, read-out: inhibit fungal infestation
Experimental: Pyrenophora teres (Helminthosporium teres)/Barley/Preventive (Action Against Net Blotch on Barley) 1-week-old barley plants cv. Regina are treated with the formulated test compound in a spray chamber. Two days after application barley plants are inoculated by spraying a spore suspension (2.6×10^4 conidia/ml) on the test plants. After an incubation period of 4 days at 20° C. and 95% r.h. the disease incidence is assessed.

Row | SMILES | inhibition at 200 ppm [1] [%] | inhibition at 200 ppm [2] [%] | inhibition at 200 ppm [3] [%] | melting point [°C] | inhibition at 200 ppm [4] [%] | inhibition at 200 ppm [5] [%] | inhibition at 200 ppm [6] [%] | inhibition at 200 ppm [7] [%]
1 | COc1nnc(C)c(-c2cccs2)c1-c1c(F)cc(F)cc1F [I.h.199, 3-methoxy-6-methyl-5-thiophen-2-yl-4-(2,4,6-trifluorophenyl)-pyridazine] | ≥ 80 | ≥ 80 | ≥ 80 | 124 to 125 | ≥ 80 | ≥ 80 | ≥ 80 | ≥ 80
2 | Cc1nnc(F)c(-c2c(F)cc(F)cc2F)c1-c1cccs1 [I.h.197, 3-fluoro-6-methyl-5-thiophen-2-yl-4-(2,4,6-trifluorophenyl)-pyridazine] |  | ≥ 80 | ≥ 80 | 71 to 74 | ≥ 80 | ≥ 80 | ≥ 80 | ≥ 80
3 | COc1cc(F)c(-c2c(OC)nnc(C)c2-c2cccs2)c(F)c1 [I.h.254, 4-(2,6-difluoro-4-methoxyphenyl)-3-methoxy-6-methyl-5-thiophen-2-yl-pyridazine] |  |  |  | 130 to 133 |  |  |  | 
4 | Cc1nnc(C)c(-c2c(F)cc(F)cc2F)c1-c1cccs1 [I.h.200, 3,6-dimethyl-4-thiophen-2-yl-5-(2,4,6-trifluorophenyl)-pyridazine] | ≥ 80 | ≥ 80 | ≥ 80 | 100 to 102 | ≥ 80 | ≥ 80 | ≥ 80 | ≥ 80
5 | Cc1nnc(Cl)c(-c2c(F)cc(F)cc2F)c1-c1cccs1 [I.h.198, 3-chloro-6-methyl-5-thiophen-2-yl-4-(2,4,6-trifluorophenyl)-pyridazine] | ≥ 80 | ≥ 80 | ≥ 80 | 90 to 92 | ≥ 80 | ≥ 80 | ≥ 80 | ≥ 80
6 | Cc1n[nH]c(=O)c(-c2c(F)cc(F)cc2F)c1-c1cccs1 [I.h.196, 6-methyl-5-thiophen-2-yl-4-(2,4,6-trifluorophenyl)-2H-pyridazin-3-one] |  |  |  | 249 to 251 |  |  |  | 
